pIC50: −log10 of the molar value. Where two headings read alike, the source gives them in different places.
Tests used:
3H-serotonin uptake = target: T1, 3H-serotonin uptake (Rattus norvegicus, UniProt P31652); test: Serotonin uptake, rat hypothalamus P2 fraction (synaptosomes); format: biochemical
T1 construct: the hypothalamus was removed, weighed and homogenised on a Dounce; from tissue
Procedure: After homogenisation of brain tissue in a sucrose solution, the presynaptic terminals break away from the axon and close to form synaptosomes obtained by subcellular fractionation.
Male Sprague-Dawley (Janvier) rats weighing 180-200 g were used.
This homogenate was centrifuged for 10 min at 1,000 g (2,400 rpm-Hettich, Rotenta). […] The residue (called the P2 fraction) was recovered in sucrose at a concentration of 50 mg/ml.
Exactly 5 min after the start of incubation, the reaction was stopped by vacuum filtration on Whatman GF/F filters (predilution with 2.5 ml of chilled buffer then rinsing with 3 times 2.5 ml).
The IC50 were determined by transposing the percentages of inhibition onto a graph in relation to the log of the product concentration (6 concentrations in duplicate).

3H-paroxetine binding = target: T2, 3H-paroxetine binding (Rattus norvegicus, UniProt P31652); test: Paroxetine binding, rat hypothalamus membranes
T2 construct: the hypothalamus was removed, weighed and homogenised on a Dounce; from tissue
T2 sequence (P31652 whole entry): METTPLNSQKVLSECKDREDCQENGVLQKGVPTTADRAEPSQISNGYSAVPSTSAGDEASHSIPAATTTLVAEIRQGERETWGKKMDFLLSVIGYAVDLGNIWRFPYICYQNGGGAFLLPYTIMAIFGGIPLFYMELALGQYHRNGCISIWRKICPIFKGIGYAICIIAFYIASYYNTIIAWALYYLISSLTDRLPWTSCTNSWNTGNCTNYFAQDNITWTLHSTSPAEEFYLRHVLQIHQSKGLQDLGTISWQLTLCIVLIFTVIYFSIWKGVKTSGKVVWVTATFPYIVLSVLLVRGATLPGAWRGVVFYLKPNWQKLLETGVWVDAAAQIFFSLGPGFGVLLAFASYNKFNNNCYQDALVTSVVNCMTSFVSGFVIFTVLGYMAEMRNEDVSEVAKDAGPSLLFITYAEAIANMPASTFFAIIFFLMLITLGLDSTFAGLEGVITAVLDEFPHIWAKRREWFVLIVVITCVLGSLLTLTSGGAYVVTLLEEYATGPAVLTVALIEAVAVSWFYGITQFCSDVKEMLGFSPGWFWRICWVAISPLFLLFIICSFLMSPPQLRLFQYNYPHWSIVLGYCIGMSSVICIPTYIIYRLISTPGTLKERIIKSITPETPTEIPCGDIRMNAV
Procedure: 2.1.3. Paroxetine Binding
Male Sprague-Dawley rats (Janvier) weighing 180-200 g were used. The hypothalami of several rats were collected and homogenised in 5 ml of chilled buffer (50 mM Tris-HCL, 120 mM NaCl, 5 mM KCl, pH 7.5) on a Dounce, and the homogenate was centrifuged at 30 000 g (27 000 rpm-Beckman. L5-50E, T40 rotor) for 10 min. The residue obtained was recovered in 5 ml of buffer and re-centrifuged under the same conditions. The new residue was recovered in the same buffer and finally re-homogenised on a Dounce at a tissue concentration of 10 mg/ml. The membrane suspension (100 μl) was incubated with 3H-paroxetine (NEN, France, 28.6 Ci/mmol) at a concentration (final) of 0.1 nM, at 20° C., in a final volume of 1 ml for 2 hr. After 2 hr incubation, the reaction was stopped by vacuum filtration on Whatman GF/F filters pre-treated in a 0.05% solution of polyethylenimine 30 min beforehand (prediluted with 4 ml of chilled buffer, then the tube was rinsed with 2 times 4 ml). Radioactivity was measured by liquid scintillation spectrometry (Packard, Tricarb 4640) using Emulsifier-Safe (Packard) as the scintillating agent.
Specific ^3H-paroxetine binding was defined as the difference between total binding and that remaining in the presence of 10 μM of fluoxetine.
The IC50 were determined by transposing the percentages of inhibition onto a graph in relation to the log of the concentration of the product (6 concentrations in duplicate).

3H-norepinephrine uptake [1] = target: T3, 3H-norepinephrine uptake (Rattus norvegicus, UniProt Q63380); details: read-out: IC50 3H-Norepinephrine uptake; rat hypothalamus P2, 3H-NE 50 nM, 10 min, 37° C.
T3 sequence (Q63380 1-617): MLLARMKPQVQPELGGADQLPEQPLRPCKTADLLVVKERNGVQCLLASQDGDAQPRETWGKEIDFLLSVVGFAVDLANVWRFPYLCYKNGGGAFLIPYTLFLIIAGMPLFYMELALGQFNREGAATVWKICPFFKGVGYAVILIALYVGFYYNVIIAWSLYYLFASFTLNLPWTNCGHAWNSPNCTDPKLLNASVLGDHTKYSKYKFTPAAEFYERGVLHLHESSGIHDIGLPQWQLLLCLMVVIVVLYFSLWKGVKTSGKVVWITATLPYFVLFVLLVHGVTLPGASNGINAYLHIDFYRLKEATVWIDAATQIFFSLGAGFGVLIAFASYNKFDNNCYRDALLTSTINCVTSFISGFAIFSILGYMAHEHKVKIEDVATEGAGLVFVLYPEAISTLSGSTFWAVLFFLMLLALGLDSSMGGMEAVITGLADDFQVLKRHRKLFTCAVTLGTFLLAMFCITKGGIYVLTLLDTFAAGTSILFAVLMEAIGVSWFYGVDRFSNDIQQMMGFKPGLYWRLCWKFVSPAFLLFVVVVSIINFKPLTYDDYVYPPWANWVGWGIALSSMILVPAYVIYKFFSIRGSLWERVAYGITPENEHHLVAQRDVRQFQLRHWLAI
Procedure: (§1) Norepinephrine Uptake by a Homogenate (P2) of Rat Hypothalamus.
(§2) Male Sprague-Dawley rats, from 200 to 300 g, were stunned and decapitated, and the hypothalami were rapidly removed. Two hypothalami are homogenised in 4 ml of sucrose 0.32 M on a Potter S by 16 complete passes back and forth at 800 rpm, then centrifuged for 10 min at 1,000 g to eliminate cell debris. The supernate is centrifuged for 20 min at 10,000 g and the P2 thus obtained is recovered in 4 ml of sucrose 0.32 M, and homogenised on a Dounce.
(§3) ^3H-(1)-NE: 13 Ci/mmol (Amersham) is used.
(§4) Uptake takes place in a phosphate buffer (containing 8 g of NaCl, 1.21 g of K2HPO4 and 0.34 g of KH2PO4 per liter) pre-oxygenated 30 min before use with a mixture of O2/CO2 (95%/5%).
(§5) In 5-ml plastic tubes placed in a water bath at 37° C., the following are introduced: • 100 μl of buffer or inhibitor, • 700 μl of buffer (containing 25 μM pargyline), • 100 μl of P2.
(§6) After temperature balance, the reaction begins by the addition of 100 μl of ^3H-NE, 50 nM final concentration.
(§7) Exactly 10 min later, the reaction is stopped by adding 2.5 ml of chilled buffer and filtering through GF/F filters. The tube is then rinsed once and the filter once with 2.5 ml of chilled buffer. The filter is then introduced into a Beckman mini-vial and, after adding 3 ml of Instagel (Packard) liquid scintillator, radioactivity is measured with a Tricarb Packard scintillation counter.
(§8) Non-specific uptake (NS) is measured as the presence of DMI 10^−5 M.
(§9) The percentage of inhibition is calculated using the formula:
(§10) The IC50 is determined graphically on the mean curve of percentage of inhibition (4 assays) in relation to the log of the concentration of inhibitor.

[2] = Pharmacokinetic study in man (12 healthy subjects), racemate or one enantiomer alone; format: in vivo; details: human, plasma; for half-life: read-out: T½ (converted)
Procedure: A pharmacokinetic study in man involving 12 healthy subjects was performed by administering the racemate or one of the two enantiomers alone.

primary rat hepatocytes = test: Safe-Hit genomic test of predictive toxicology (Toxicity Index) on primary rat hepatocytes; format: cell-based; details: 16 h
Text: After treatment of the primary rat hepatocytes in culture, the RNA was extracted in order to generate labelled complementary-DNA probes which were then hybridised on a membrane containing 682 alternatively-spliced fragments specific to cell stress. A Toxicity Index was obtained for each of the products by comparing the hybridisation profile of the treated cells with that of the untreated cells.
Safe-Hit allows molecules within a chemical series to be ranked according to a Toxic Index, determined after the following basic steps (systematically performed in duplicate for each product): • treatment of the cells lines with the various products at three different concentrations, deduced from a preliminary cytotoxicology test (MTT-assay): a reference concentration corresponding to 80% cell viability, a concentration 10-fold higher—when possible—and a concentration 10-fold lower, • preparation of total RNA and of the corresponding radio-labelled cDNA probes, • hybridisation of the cDNA probes: the Safe-Hit macroarray contains 682 independent clones, corresponding to alterations in gene splicing induced by overexpression of WTp53 (p53 is the most ubiquitous “mediator” of cell stress, chosen for the development of this methodology), • acquisition and determination of the Toxicity Index. 4.1.2. Cells
The cells used in the study (preliminary MTT-assay of cytotoxicity and the main test) are cryopreserved hepatocytes from Sprague-Dawley rats in primary culture (batches Hep184005 and Hep184006-Biopredic), cultured under standard conditions.
The cells are seeded and cultured for 16 hours with each product, at the three concentrations chosen on the basis of the preliminary MTT-assay; two controls (untreated cells in solvent alone) are added to the series.
The results of the two Safe-Hit analyses are then compared and combined to assess the potential toxicity of the various compounds tested. Two parameters that can be modified by the user are involved in the calculation of the Toxicity Index: • Background Threshold (BT) smoothes out weak signals, close to background noise and not attributable to significant gene expression. […] The value of this parameter is usually 2 or less than 2 in order to obtain relevant results. […]
Toxicity Indices (TI) were determined as described above. […] Two separate analyses were performed using two levels of differentiation (Induction Factor-IF) in relation to the untreated controls: • a factor of at least 1.7 in relation to the untreated controls. This factor of 1.7 times represents the weakest value that allows an index not to be obtained in relation to the two untreated controls. • a factor of at least 2 in relation to the untreated controls. This factor of 2 times allows the most robust signals to be taken into account. 4.3.1. Induction Factor of 1.7 in Relation to Untreated Control (Table 7)

[3] = in vivo
Text: In animals, the pharmacokinetics of each enantiomer were studied following administration of the racemate or of one single enantiomer.

3H-norepinephrine uptake [4] = target: T3, 3H-norepinephrine uptake; test: biochemical
Procedure: as §1, §2, §3, §4, §5, §6, §7, §8, §9, §10

[5] = enantiomer administered alone (25 mg)
[6] = enantiomer assayed after F2207 (50 mg)

T1 sequence (P31652 whole entry): as the sequence (P31652 whole entry) above

## CCN(CC)C(=O)C1(c2ccccc2)CC1CN (racemic) [F2207, Z(±)-2-(aminomethyl)-N,N-diethyl-1-phenyl cyclopropane carboxamide]
3H-serotonin uptake
  pIC50: 6.82
3H-paroxetine binding
  pIC50: 6.89
3H-norepinephrine uptake [1]
  IC50: 30 nM

## CCN(CC)C(=O)[C@]1(c2ccccc2)C[C@@H]1CN [F2696, Z-(1R, 2S)-2-(aminomethyl)-N,N-diethyl-1-phenyl cyclopropane carboxamide]
[2]; [5]
  AUC(0-inf): 1.54 µM·h
  Cmax: 212 nM
  Tmax: 2.21 h
  half-life: 5.58 h
[2]; [6]
  AUC(0-inf): 1.56 µM·h
  Cmax: 179 nM
  Tmax: 2.87 h
  half-life: 5.75 h
3H-serotonin uptake
  pIC50: 6.22
3H-paroxetine binding
  pIC50: 6.15
Primary rat hepatocytes; 100 μM
  Clone G09 (H. sapiens mitochondrion, cytochrome b), regulation factor vs untreated control: 2.09
  Clone I01 (H. sapiens mitochondrion, cytochrome c oxidase subunit 1), regulation factor vs untreated control: 2.05
  Clone L01 (H. sapiens divalent cation tolerant protein CUTA mRNA), regulation factor vs untreated control: 2.05
  Clone M07 (H. sapiens mitochondrion, cytochrome c oxidase subunit 1), regulation factor vs untreated control: 2.25
  Clone M12 (H. sapiens mRNA; cDNA DKFZp564C1563), regulation factor vs untreated control: 0.21
  Clone W17 (H. sapiens mitochondrion, hypoxia inducible gene-14), regulation factor vs untreated control: 2.96
Primary rat hepatocytes; Sprague-Dawley, rat, 1 μM
  Clone T08 (H. sapiens mRNA for KIAA1185 protein), regulation factor vs untreated control: 0.50
  Clone U04 (H. sapiens translation initiation factor elF-2alpha mRNA), regulation factor vs untreated control: 0.57
  Number of down-regulated clones (Down): 2
Primary rat hepatocytes; Sprague-Dawley, rat, 10 μM
  Clone AC13 (H. sapiens 7S RNA L gene), regulation factor vs untreated control: 0.22
  Clone T08 (H. sapiens mRNA for KIAA1185 protein), regulation factor vs untreated control: 0.22
  Clone U04 (H. sapiens translation initiation factor elF-2alpha mRNA), regulation factor vs untreated control: 0.26
  Clone X02 (unk), regulation factor vs untreated control: 0.29
  Number of down-regulated clones (Down): 5
Primary rat hepatocytes; Sprague-Dawley, rat, 100 μM
  Clone A20 (H. sapiens initiation factor elF-5A gene), regulation factor vs untreated control: 0.56
  Clone AC13 (H. sapiens 7S RNA L gene), regulation factor vs untreated control: 0.16
  Clone C01 (H. sapiens mitochondrion, 16S), regulation factor vs untreated control: 3.20
  Clone E11 (H. sapiens chlordecone reductase homolog liver, mRNA), regulation factor vs untreated control: 2.12
  Clone I18 (H. sapiens 18S rRNA gene), regulation factor vs untreated control: 2.38
  Clone J03 (H. sapiens CLP mRNA), regulation factor vs untreated control: 2.12
  Clone L22 (H. sapiens mRNA for Lon protease-like protein), regulation factor vs untreated control: 1.78
  Clone M23 (Sequence 21 from U.S. Pat. No. 5,851,764), regulation factor vs untreated control: 1.95
  Clone P05 (H. sapiens PAC clone DJ404K21 from Xq23), regulation factor vs untreated control: 1.78
  Clone Q24 (H. sapiens 28S ribosomal RNA gene), regulation factor vs untreated control: 1.77
  Clone T08 (H. sapiens mRNA for KIAA1185 protein), regulation factor vs untreated control: 0.20
  Clone U04 (H. sapiens translation initiation factor elF-2alpha mRNA), regulation factor vs untreated control: 0.19
  Clone X02 (unk), regulation factor vs untreated control: 0.20
  Clone X06 (H. sapiens Genomic sequence from 9q34), regulation factor vs untreated control: 0.16
  Clone X23 (unk), regulation factor vs untreated control: 1.92
  Clone Y17 (H. sapiens 28S ribosomal RNA gene), regulation factor vs untreated control: 2.65
[3]; monkey
  Plasma concentrations of the enantiomers compared: approximately equivalent
[3]; rat
  Plasma concentrations of the enantiomers compared: approximately equivalent
3H-norepinephrine uptake [4]
  pIC50: 6.12

— patent USRE43879E1, “Use of the dextrogyral enantiomer of milnacipran for the preparation of a drug” (priority 2003, dated 2012)
